Where two headings read alike, the source gives them in different places.

Data set [1] deals with GP2D. Description: Inhibition of proliferation of KRAS G12D mutant tumor cell line GP2D (CellTiter-Glo). The note with it: read-out: GP2D IC50.
The nature of data set [2]: Pharmacokinetic determination in rats (IV and PO, plasma, LCMS/MS). The data set is classed as in vivo, SD rats. The note with it: male SD rats; for AUC(0-inf): read-out: AUCo-∞; for half-life: read-out: T1/2 (converted). As to the method:
SD rats were used as test animals to study the pharmacokinetic behavior of the example compounds in rats (plasma) after oral administration.
The example compounds of the present invention, made in house.
3 SD rats per group, male. Shanghai Jiesijie Experimental Animal Co., Ltd., animal production license number (SCXK (Shanghai) 2013-0006 N0.311620400001794).
Formulation of a drug for oral administration: 10% Captisol in 50 mM citrate buffer pH 5.0.
Formulation of 50 mM citric acid: 4.8 g of citric acid was weighed into a 1000 ml glass bottle, ultrapure water was added to 300 ml, and the mixture was magnetically stirred until completely dissolved, additional ultrapure water was then added to 500 ml to formulate 50 mM citric acid.
Formulation of a solution containing 50 mM citric acid (10% Captisol, PH = 5): 50 g of Captisol powder was weighed and added to a 1000 ml glass bottle, 300 ml of 50 mM citric acid was added, and the mixture was magnetically stirred until completely dissolved, then additional citric acid was added to 500 ml, and the PH was adjusted to 5 using 10 M NaOH.
The example compounds were weighed and dissolved in the solution and the mixture was shaken well and subjected to ultrasound treatment for 15 min to obtain a colorless clear solution with a concentration of 3 mg/mL.
Formulation of a drug for intravenous administration: 5%DMSO+10%Solutol HS15+85%PBS.
The example compounds were weighed, and 5% DMSO was added according to the total administration volume; the mixture was vortexed and sonicated for 2 min to ensure complete dissolution; then, 10% Solutol HS15 was added, and the mixture was vortexed and sonicated for 2 min to achieve complete dissolution; finally, 85% PBS was added, and the mixture was vortexed and sonicated for 5 min; the obtained mixture was filtered through a 0.22 um membrane to obtain a colorless, transparent, and clear solution with a concentration of 0.2 mg/mL.
3 SD rats per group, male; After overnight fasting, the animals were administered orally (PO) at a dose of 30 mg/kg with an administration volume of 10 mL/kg.
3 SD rats per group, male; After overnight fasting, the animals were administered intravenously (IV) at a dose of 1 mg/kg with an administration volume of 5 mL/kg.
0.2 mL of blood was collected from the jugular vein before administration and at 0.25 h, 0.5 h, 1.0 h, 2.0 h, 4.0 h, 6.0 h, 8.0 h, and 24.0 h after administration and placed in an EDTA-2K test tube, and the test tube was centrifuged at 6000 rpm for 6 min at 4°C to separate the plasma, which was stored at -20°C. the animals were fed 4 h after administration.
The final determination results obtained by applying the LCMS/MS method are shown in the table below: Table 8: Pharmacokinetic parameters of the compounds administered intravenously in rats

Data set [3] is described as follows: Plasma stability test, human plasma.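 Further: test compound incubated in human plasma, quantified by LC-MS/MS (positive-ion ESI, MRM) against an internal standard.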 The data set is classed as in vitro ADME. The note with it: human, plasma.
Procedure: (§1) Liquid chromatography-mass spectrometer, centrifuge, vortexer, pipette, continuous dispenser, 96-well plate, 50% methanol aqueous solution, acetonitrile solution containing internal standard, blank matrix (plasma of rat, dog, or human), Propantheline (propantheline bromide), Mevinolin (lovastatin), and test compound.
(§2) After whole blood was collected from animals or humans, it was placed in a test tube containing an anticoagulant and centrifuged at 3500 rpm for 10 min to collect the upper pale yellow plasma.
(§3) The compound was weighed and the stock solution was formulated with DMSO and the working solution was formulated with 100 mM phosphate buffer.
(§4) • Instrument: API4000 liquid chromatography-mass spectrometer, AB Company, USA; • the ion source was electrospray ionization source (ESI); • drying gas (N2) temperature was 500°C; • electrospray voltage was 5500V; • the detection method was positive ion detection; • the scanning method was selected reaction monitoring (MRM); • the scanning time was 0.1s.
A short description of data set [4]: Plasma stability test, dog plasma.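 Further: parent compound left in dog plasma quantified by LC-MS with positive electrospray ionization, selected reaction monitoring and an internal standard.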 The data set is classed as in vitro ADME. The settings on record: dog, plasma.
Procedure: as §1, §2, §3, §4
The nature of data set [5]: Plasma stability test, mouse plasma.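 Further: test compound quantified by LC-MS using positive-mode electrospray ionization and MRM scanning, with an internal standard added in acetonitrile.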 The data set is classed as in vitro ADME. The note with it: mouse, plasma.
Procedure: as §1, §2, §3, §4
Setting [6] is: IV, 1 mg/kg, overnight fasting, plasma.
The mark [7] stands for this setting: PO, 30 mg/kg, overnight fasting, plasma.
Where [8] appears, read: rat, in vivo, PO, 30 mg/kg, overnight fasting, plasma.
[9] abbreviates: rat, in vivo, PO, 30 mg/kg, overnight fasting, plasma, read-out: Cmax.
[10] abbreviates: rat, in vivo, PO, 30 mg/kg, overnight fasting, plasma, read-out: Tmax.

A word on the IC50: it is the concentration at which inhibition is half-maximal. Usually Cmax stands for the maximum level reached in the sampled fluid or tissue. What is called Tmax is the time from dosing to the highest level. On to `CC[C@@H]1Oc2nc(-c3cc(N)cc(Cl)c3C(F)(F)F)c(F)c3nc(OCC4(CN5CCC(=CF)CC5)CC4)nc(c23)N2C[C@@H]3CC[C@@H](N3)[C@@H]12` [Example 322, 3-chloro-5-((5S,5aS,6R,9S)-5-ethyl-1-fluoro-12-((1-((4-(fluoromethylene)piperidin-1-yl)methyl)cyclopropyl)methoxy)-5a,6,7,8,9,10-hexahydro-5H-4-oxa-3,10a,11,13,14-pentaaza-6,9-methylnaphtho[1,8-ab]hept-2-yl)-4-(trifluoromethyl)aniline], for which the IC50 in data set [1] (proliferation, about 72 h, CellTiter-Glo) was 610 pM. Moreover, in data set [2] (setting [6]), the “AUCo-∞” value came out at 219 ng·h/mL, the C0 is reported as 326 ng/mL, the CL worked out at 76.2 mL/min/kg and the T1/2 worked out at 11.6 h. In data set [2] (PO 30 mg/kg vs IV 1 mg/kg), this compound returned an F of 10%. For the same compound, in data set [2] (setting [7]), the “AUCo-∞” value was 694 ng·h/mL, the Cmax was determined as 40 ng/mL, the T1/2 is 10.4 h and the time to peak (Tmax) turned out to be 6.0 h.

Regarding `C#Cc1c(F)ccc2cc(O)cc(-c3nc4c5c(nc(OCC6(CN7CC8CC(=C(F)F)CC8C7)CC6)nc5c3F)N3C[C@H]5CC[C@H](N5)[C@H]3[C@H](C)O4)c12` (some centres unmarked) [Example 133], the IC50 in data set [1] (Homo sapiens, GP2d, 72 h) came to 530 pM. In data set [2] (setting [8]), the AUC(0-inf) amounted to 6510 ng·h/mL and the half-life was 7 h. The maximum concentration (Cmax) in data set [2] (setting [9]) worked out at 588 ng/mL. In addition, the time to peak (Tmax) in data set [2] (setting [10]) is 4 h.

Take `C#Cc1c(F)ccc2cc(O)cc(-c3nc4c5c(nc(OCC6(CN7CC8CC(=C(F)F)CC8C7)CC6)nc5c3F)N3C[C@H]5CC[C@H](N5)[C@H]3[C@H](CC)O4)c12` (some centres unmarked) [Example 141]: the IC50 in data set [1] (Homo sapiens, GP2d, 72 h) was 940 pM. Moreover, in data set [2] (setting [8]), the AUC(0-inf) is 17300 ng·h/mL and the half-life is 18.9 h. Besides, the Cmax in data set [2] (setting [9]) turned out to be 869 ng/mL. In data set [2] (setting [10]), the Tmax amounted to 2 h.

Turning to `C#Cc1c(F)ccc2cc(O)cc(-c3nc4c5c(nc(OCC6(CN7CCCC(=C(F)F)CC7)CC6)nc5c3F)N3C[C@H]5CC[C@H](N5)[C@H]3[C@H](CC)O4)c12` [Example 140], in data set [1] (Homo sapiens, GP2d, 72 h), the IC50 was 790 pM. In addition, in data set [2] (setting [8]), the AUC(0-inf) amounted to 2280 ng·h/mL and the half-life was 11 h. Moreover, in data set [2] (setting [9]), the maximum concentration (Cmax) was 118 ng/mL. In addition, the time of peak concentration (Tmax) in data set [2] (setting [10]) is 2 h.

On to `C#Cc1c(F)ccc2cc(O)cc(-c3nc4c5c(nc(OCC6(CN7CCC(=NOC)C8(CC8)C7)CC6)nc5c3F)N3C[C@H]5CC[C@H](N5)[C@H]3[C@H](C)O4)c12` [Example 342, 5-((1-((((5S,5aS,6S,9R)-2-(8-ethynyl-7-fluoro-3-hydroxynaphthalen-1-yl)-1-fluoro-5-methyl-5a,6,7,8,9,10-hexahydro-5H-4-oxa-3,10a,11,13,14-pentaaza-6,9-methylnaphtho[1,8-ab]heptene-12-yl)oxy)methyl)cyclopropyl)methyl)-5-azaspiro[2.5]octan-8-one O-methyloxime], for which the concentration for half-maximal inhibition (IC50) in data set [1] (Homo sapiens, GP2d, 72 h) amounted to 410 pM.

For the compound `C#Cc1c(F)ccc2cc(O)cc(-c3nc4c5c(nc(OCC6(CN7CC8CCC7CC8=NOC)CC6)nc5c3F)N3C[C@H]5CC[C@H](N5)[C@H]3[C@H](C)O4)c12` [Example 345], the 50% inhibitory concentration (IC50) in data set [1] (Homo sapiens, GP2d, 72 h) was 180 pM.

Regarding `CC(C)[N+](C)(CCOC(=O)C1c2ccccc2Oc2ccccc21)C(C)C` [Propantheline bromide, propantheline bromide, reference compound], the half-life was 0.27 h in data set [3], 1.34 h in data set [4] and 0.462 h in data set [5]. Also, the “Remaining rate (%) 0 min” value in data set [3] (0 h), in data set [4] (0 h) and in data set [5] (0 h) was 100.00% in each case. For the same compound, the figures for the “Remaining rate (%) 15 min” value in data set [3] (0.25 h), in data set [4] (0.25 h) and in data set [5] (0.25 h) were 26.78%, 95.25% and 79.79%, respectively. Moreover, the results for the “Remaining rate (%) 30 min” value in data set [3] (0.5 h), in data set [4] (0.5 h) and in data set [5] (0.5 h) were 5.05%, 95.45% and 48.66%, respectively. Moreover, the results for the “Remaining rate (%) 60 min” value in data set [3] (1 h), in data set [4] (1 h) and in data set [5] (1 h) were 0.25%, 75.66% and 23.39%, respectively. In addition, the entries for the “Remaining rate (%) 120 min” value in data set [3] (2 h), in data set [4] (2 h) and in data set [5] (2 h) were 0.05%, 36.25% and 6.66%, respectively.

Consider `[2H]C([2H])([2H])[C@@H]1Oc2nc(-c3cc(O)cc4ccc(F)c(C#C)c34)c(F)c3nc(OC([2H])([2H])C4(C([2H])([2H])N5CCC(=CF)CC5)CC4)nc(c23)N2C[C@H]3CC[C@H](N3)[C@@H]12` [Example 298], for which the half-inhibitory concentration (IC50) in data set [1] (Homo sapiens, GP2d, 72 h) is 280 pM.

In the case of `C#Cc1c(F)ccc2cc(O)cc(-c3nc4c5c(nc(OCC6(CN7C8CCC7CC(=C(F)F)C8)CC6)nc5c3F)N3C[C@H]5CC[C@H](N5)[C@H]3[C@H](C)O4)c12` [Example 134], the IC50 in data set [1] (Homo sapiens, GP2d, 72 h) is 1000 pM.

The record behind these values is patent publication EP4635958A1, “PYRIMIDINE-CONTAINING POLYCYCLIC DERIVATIVE INHIBITOR, AND PREPARATION METHOD THEREFOR AND USE THEREOF” (Shanghai Hansoh Biomedical Co., Ltd., priority 2022, dated 2024).
